Test results published in patent US20060183773A1, “Uses of methylphenidate derivatives” (priority 2005, published 2006).

What was measured:
Format in all cases: cell-based, human
[1] = tested on: IL-8; test: IL-8 release by TNFα-stimulated HUVECs, ELISA; conditions: for Mean IL-8: 18 hours, TNFα + water 35572; for IL-8 release stimulated by TNFα (in words): HUVECs, Cpd II 1-30 μg/ml, MP 15 μg/ml, Dex and LY 294002 10 μM
Procedure: Passage 4 HUVECs, human source lot number 8710 (obtained from ATCC), were put into the wells of a 24-well tissue culture plate at 5,000 cells/well in EGM-2 medium (obtained from Cambrex) and cultured for 72 hours at 37° C. and 5% CO2. […] After incubation for 1 hour at 37° C. and 5% CO2, TNFα (obtained from Pierce) was added to give a final concentration of 10 ng/ml, and the cells were incubated for an additional 18 hours at 37° C. and 5% CO2. After this incubation, the supernatants were collected, and the amount of IL-8 in the supernatants determined by ELISA as described in Example 4.

[2] = tested on: IL-13; test: IL-13 release by PBL, ELISA; conditions: Dex 10 μM; for IL-13 release induced by PHA: donor GR467, 2 μg/ml PHA, 96 h, Cpd II 15 μg/ml, MP 15 μg/ml, FIG. 3
Procedure: After this incubation, PHA was added to give a final concentration of 2 μg/ml, and the cells were incubated for an additional 96 hours at 37° C., 5% CO2. All cultures were performed in triplicate. Cells were then removed by centrifugation at 1000 rpm for 10 minutes, and the culture medium collected.
Release of IL-13 and interferon gamma (IFNγ) into the culture medium was measured by ELISA. To perform the ELISA, matched pairs of antibodies against human IL-13 and IFNγ were purchased from Pierce Biotechnology and Biosource, respectively. ELISA strip well plates were coated with 10 μg/ml of antibody (in phosphate-buffered saline (PBS)) to IL-13 and 4 μg/ml of antibody to IFNγ (in PBS) overnight at room temperature. The plates were then blocked using a 4% BSA solution in PBS for one hour, followed by the addition of 50 μl of experimental culture medium per well in duplicate. The plates were incubated at room temperature for one hour and then washed using 50 mM Tris pH 8.0 with 0.1% Tween 20. Then, solutions of 400 ng/ml biotinylated second antibody to IL-13 and 500 ng/ml biotinylated second antibody to IFNγ were made in blocking buffer, and 100 μl were added per well. The plates were incubated for 1 hour and washed again. A 1:8000 dilution of Strepavidin HRP (Pierce Biotechnology) conjugate was made in blocking buffer, and 100 μl were added to the wells and incubation continued for 30 minutes. A final wash step was performed, after which 100 μl Pierce Biotechnology TMB substrate were added to each well. Color was developed for 30 minutes and stopped by adding 100 μl 0.18 N H2SO4. OD was determined using microplate reader with a 450 nm filter.
After this incubation, PHA was added to give a final concentration of 5 μg/ml, and the cells were incubated for an additional 72 hours at 37° C., 5% CO2. All cultures were performed in triplicate. Cells were then removed by centrifugation at 1000 rpm for 10 minutes.
The supernatants were collected, and the concentrations of IL-13 and tumor necrosis factor alpha (TNFα) in the supernatants were measured by ELISA. […]

[3] = tested on: NFκB; test: Activated NFκB in VEGF-treated HUVECs, TransAM assay; conditions: for Mean OD 450 nm (NFκB): control 0.070, VEGF only 0.111
Procedure: Passage 5 HUVECs, human source lot number 8750 (obtained from ATCC), were grown to confluence in 25 cm^2 flasks in EGM-2 medium. The following additives were added to the flasks (total volume of 5 ml/flask) in EGM-2 medium containing 2% FCS, GA1000 (gentamycin), heparin and ascorbic acid (all from Cambrex): 1 μg/ml of the compound of formula II (Cpd II); 5 μg/ml Cpd II; 15 μg/ml of Cpd II; 15 μg/ml methylphenidate (MP); or 10 μM LY 294002. The flasks were incubated overnight at 37° C., 5% CO2 After this incubation, vascular endothelial growth factor (VEGF) (obtained from Sigma) was added to give a final concentration 10 ng/ml, and the flasks were incubated for an additional 30 minutes.
Then, the amount of NFκB was determined using a TransAM™ NFκB p65/NFκB p50 Transcription Factor Assay Kit and a Nuclear Extract Kit from Active Motif North America, Carlsbad, Calif., according to the manufacturer's instructions. Briefly, a nuclear extract of the cells was prepared using the Nuclear Extract Kit. Then, the nuclear extract was added to the wells of the 96-well plate of the TransAM™ kit. Oligonucleotide containing an NFκB consensus binding site was immobilized in the wells, and the activated NFκB contained in the nuclear extract was bound to the oligonucleotide. Then, an antibody directed against the NFκB p65 or p50 subunit was added, and the NFκB complex bound to the oligonucleotide was detected. A secondary antibody conjugated to horseradish peroxidase (HRP) was next added to provide a colorimetric readout that was quantified by spectrophotometry (measurement at 450 nm).

Row | SMILES | Mean IL-8 ([1]; 10 ng/ml TNFα + 15 μg/ml) | IL-8 release stimulated by TNFα (in words) [1] | IL-13 release induced by PHA [2] | Mean OD 450 nm (NFκB) ([3]; VEGF 10 ng/ml + 15 μg/ml) | Mean IL-8 ([1]; 10 ng/ml TNFα + 1 μg/ml) | Mean IL-8 ([1]; 10 ng/ml TNFα + 5 μg/ml) | Mean IL-8 ([1]; 10 ng/ml TNFα + 10 μg/ml) | Mean IL-8 ([1]; 10 ng/ml TNFα + 30 μg/ml) | release of IL-13 from PHA-stimulated PBL ([2]; donor GR191, 5 μg/ml PHA, 72 h, Cpd II 15 and 50 μg/ml, FIG. 6) | Mean OD 450 nm (NFκB) ([3]; VEGF 10 ng/ml + 1 μg/ml) | Mean OD 450 nm (NFκB) ([3]; VEGF 10 ng/ml + 5 μg/ml) | amount of activated NFκB (in words) ([3]; VEGF, 15 μg/ml and 5 μg/ml)
1 | COC(=O)C(c1ccccc1)C1CCCCN1 (stereo not shown) [methylphenidate] | 30183 ± 3448.01 pg/mL | slightly decreased IL-8 release | increased the release of IL-13 by the PHA-stimulated cells | 0.093 ± 0.011 |  |  |  |  |  |  |  | 
2 | COC(=O)C(c1ccc(-c2ccccc2)cc1)C1CCCCN1 (stereo not shown) [Cpd II] | 20817 ± 674.63 pg/mL | decreased IL-8 release stimulated by TNFα in a dose-dependent manner | significantly inhibited IL-13 release induced by PHA | 0.060 ± 0.008 | 53657 ± 3935.18 pg/mL | 34482 ± 2127.22 pg/mL | 22050 ± 727.27 pg/mL | 4829.8 ± 214.13 pg/mL | significantly inhibited the release of IL-13 | 0.097 ± 0.013 | 0.065 ± 0.010 | reduced the amount of activated NFκB back to basal levels
